Measurements reported in ChEMBL document CHEMBL1156213, “Imidazo[2,1-b]thiazoles: multitargeted inhibitors of both the insulin-like growth factor receptor and members of the epidermal growth factor family of receptor tyrosine kinases” (Bioorg Med Chem Lett, 2010).

Legend:
[1] = molecular target: T1, Insulin-like growth factor 1 receptor (Homo sapiens, UniProt P08069); test: Inhibition of human recombinant IGF1R expressed in Sf21 cells by time resolved fluorescence assay
[2] = molecular target: T2, Receptor tyrosine-protein kinase erbB-2 (Homo sapiens, UniProt P04626); test: Inhibition of ErbB2 by time resolved fluorescence assay
T2 sequence (P04626 whole entry): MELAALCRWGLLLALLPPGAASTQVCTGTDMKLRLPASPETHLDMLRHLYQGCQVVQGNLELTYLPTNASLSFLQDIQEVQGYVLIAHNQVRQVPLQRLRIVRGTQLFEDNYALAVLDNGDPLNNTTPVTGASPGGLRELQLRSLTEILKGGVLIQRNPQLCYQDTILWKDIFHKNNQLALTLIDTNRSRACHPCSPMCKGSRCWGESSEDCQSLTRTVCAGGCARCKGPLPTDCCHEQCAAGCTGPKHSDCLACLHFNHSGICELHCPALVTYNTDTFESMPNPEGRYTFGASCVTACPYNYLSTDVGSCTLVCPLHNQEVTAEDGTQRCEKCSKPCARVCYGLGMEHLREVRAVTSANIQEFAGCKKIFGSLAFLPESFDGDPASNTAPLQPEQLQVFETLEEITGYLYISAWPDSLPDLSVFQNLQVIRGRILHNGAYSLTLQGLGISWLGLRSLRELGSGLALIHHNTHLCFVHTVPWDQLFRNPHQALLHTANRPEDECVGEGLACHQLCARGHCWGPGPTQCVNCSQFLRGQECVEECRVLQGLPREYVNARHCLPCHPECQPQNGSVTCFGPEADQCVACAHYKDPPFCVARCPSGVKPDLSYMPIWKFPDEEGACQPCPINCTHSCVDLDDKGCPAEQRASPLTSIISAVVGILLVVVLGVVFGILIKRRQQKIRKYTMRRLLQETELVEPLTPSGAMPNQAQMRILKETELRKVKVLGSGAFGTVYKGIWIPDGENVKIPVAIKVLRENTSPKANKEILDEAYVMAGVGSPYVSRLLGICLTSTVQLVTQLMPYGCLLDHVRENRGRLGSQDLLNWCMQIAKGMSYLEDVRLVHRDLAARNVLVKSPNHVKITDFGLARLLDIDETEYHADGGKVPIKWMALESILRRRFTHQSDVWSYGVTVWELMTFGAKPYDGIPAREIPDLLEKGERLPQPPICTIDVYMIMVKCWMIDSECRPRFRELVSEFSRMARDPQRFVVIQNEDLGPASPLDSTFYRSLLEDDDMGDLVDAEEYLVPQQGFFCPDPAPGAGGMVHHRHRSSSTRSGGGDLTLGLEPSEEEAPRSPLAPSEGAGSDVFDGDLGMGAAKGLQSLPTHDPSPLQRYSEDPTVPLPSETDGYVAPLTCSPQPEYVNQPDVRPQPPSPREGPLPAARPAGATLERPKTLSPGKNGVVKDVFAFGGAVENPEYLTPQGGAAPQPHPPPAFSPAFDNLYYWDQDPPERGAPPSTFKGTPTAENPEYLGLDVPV

[3] = molecular target: Epidermal growth factor receptor (Homo sapiens, UniProt P00533, L858R)
Epidermal growth factor receptor (Homo sapiens, UniProt P00533, L858R), sequence (P00533 25-1210 L858R limits assumed): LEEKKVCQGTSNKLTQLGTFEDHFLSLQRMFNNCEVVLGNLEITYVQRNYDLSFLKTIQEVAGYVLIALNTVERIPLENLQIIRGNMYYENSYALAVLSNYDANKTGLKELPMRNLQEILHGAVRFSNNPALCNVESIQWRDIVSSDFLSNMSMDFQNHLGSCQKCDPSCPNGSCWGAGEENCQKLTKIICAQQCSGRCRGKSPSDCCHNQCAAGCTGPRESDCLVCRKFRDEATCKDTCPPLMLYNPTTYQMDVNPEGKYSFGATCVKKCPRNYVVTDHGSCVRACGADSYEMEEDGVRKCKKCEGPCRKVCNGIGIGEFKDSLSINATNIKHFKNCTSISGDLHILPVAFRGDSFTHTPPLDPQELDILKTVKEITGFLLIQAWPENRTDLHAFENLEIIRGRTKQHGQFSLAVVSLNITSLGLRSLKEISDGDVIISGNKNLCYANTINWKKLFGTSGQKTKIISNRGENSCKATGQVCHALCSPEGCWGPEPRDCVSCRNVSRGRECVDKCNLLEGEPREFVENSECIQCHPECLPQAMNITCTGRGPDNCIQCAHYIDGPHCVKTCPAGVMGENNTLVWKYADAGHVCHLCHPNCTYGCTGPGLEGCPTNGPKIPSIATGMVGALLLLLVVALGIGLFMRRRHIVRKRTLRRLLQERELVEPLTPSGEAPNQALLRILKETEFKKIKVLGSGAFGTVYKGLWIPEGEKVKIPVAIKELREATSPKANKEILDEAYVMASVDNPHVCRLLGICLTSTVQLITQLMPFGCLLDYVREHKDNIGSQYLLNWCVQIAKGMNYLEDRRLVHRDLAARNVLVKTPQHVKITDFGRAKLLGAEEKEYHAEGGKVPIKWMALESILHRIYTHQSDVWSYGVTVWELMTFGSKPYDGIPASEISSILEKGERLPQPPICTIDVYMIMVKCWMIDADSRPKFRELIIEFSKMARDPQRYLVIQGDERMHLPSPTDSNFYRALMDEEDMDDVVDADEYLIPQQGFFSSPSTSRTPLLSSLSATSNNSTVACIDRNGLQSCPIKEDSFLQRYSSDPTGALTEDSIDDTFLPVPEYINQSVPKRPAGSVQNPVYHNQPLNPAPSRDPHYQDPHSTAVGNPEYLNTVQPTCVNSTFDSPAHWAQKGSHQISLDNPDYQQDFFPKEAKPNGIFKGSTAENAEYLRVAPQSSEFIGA

[4] = molecular target: Epidermal growth factor receptor (Homo sapiens, UniProt P00533)
Epidermal growth factor receptor (Homo sapiens, UniProt P00533), sequence (P00533 whole entry): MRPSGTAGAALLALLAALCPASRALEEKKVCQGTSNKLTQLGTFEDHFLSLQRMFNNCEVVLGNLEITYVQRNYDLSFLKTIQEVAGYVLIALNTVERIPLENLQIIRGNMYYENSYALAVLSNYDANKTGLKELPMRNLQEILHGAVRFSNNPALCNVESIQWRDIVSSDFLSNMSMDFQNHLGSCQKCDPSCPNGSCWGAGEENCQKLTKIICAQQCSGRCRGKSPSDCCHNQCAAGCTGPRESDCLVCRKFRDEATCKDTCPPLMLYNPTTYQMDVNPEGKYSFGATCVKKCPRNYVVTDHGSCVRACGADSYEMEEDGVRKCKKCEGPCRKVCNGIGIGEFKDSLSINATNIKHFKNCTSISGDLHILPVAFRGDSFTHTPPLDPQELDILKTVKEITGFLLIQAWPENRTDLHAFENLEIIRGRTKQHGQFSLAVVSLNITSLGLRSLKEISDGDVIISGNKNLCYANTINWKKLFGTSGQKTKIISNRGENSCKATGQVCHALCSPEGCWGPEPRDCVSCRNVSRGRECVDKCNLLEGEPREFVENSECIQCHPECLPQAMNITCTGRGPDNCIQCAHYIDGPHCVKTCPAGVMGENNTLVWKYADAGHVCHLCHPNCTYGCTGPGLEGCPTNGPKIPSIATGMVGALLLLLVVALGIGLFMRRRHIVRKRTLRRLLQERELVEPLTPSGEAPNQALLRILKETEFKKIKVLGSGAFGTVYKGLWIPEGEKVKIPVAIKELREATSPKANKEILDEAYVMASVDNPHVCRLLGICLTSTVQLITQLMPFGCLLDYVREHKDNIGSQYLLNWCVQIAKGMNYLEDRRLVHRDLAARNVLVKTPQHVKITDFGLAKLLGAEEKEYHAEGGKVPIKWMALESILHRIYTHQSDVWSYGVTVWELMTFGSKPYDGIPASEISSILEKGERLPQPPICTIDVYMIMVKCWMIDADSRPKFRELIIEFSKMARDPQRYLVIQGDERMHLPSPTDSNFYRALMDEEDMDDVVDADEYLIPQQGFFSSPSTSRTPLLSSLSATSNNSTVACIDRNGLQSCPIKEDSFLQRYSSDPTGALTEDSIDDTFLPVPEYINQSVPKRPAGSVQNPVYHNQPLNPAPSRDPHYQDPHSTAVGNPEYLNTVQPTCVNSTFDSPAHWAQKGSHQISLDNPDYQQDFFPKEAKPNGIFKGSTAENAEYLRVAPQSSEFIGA
Description: Inhibition of EGFR intracellular phosphorylation in human A431 cells by ELISA

[5] = molecular target: T2, Receptor tyrosine-protein kinase erbB-2; test: Inhibition of ErbB2 intracellular phosphorylation in human N87 cells by ELISA
[6] = molecular target: T1, Insulin-like growth factor 1 receptor; test: Inhibition of IGF1R intracellular phosphorylation in human A431 cells by ELISA; assay type: cell-based, A-431
[7] = Inhibition of PKA
[8] = Inhibition of MAPKAPK
[9] = Inhibition of CK2
[10] = molecular target: T3, Serine/threonine-protein kinase Sgk1 (Homo sapiens, UniProt O00141); test: Inhibition of SGK
T3 sequence (O00141 whole entry): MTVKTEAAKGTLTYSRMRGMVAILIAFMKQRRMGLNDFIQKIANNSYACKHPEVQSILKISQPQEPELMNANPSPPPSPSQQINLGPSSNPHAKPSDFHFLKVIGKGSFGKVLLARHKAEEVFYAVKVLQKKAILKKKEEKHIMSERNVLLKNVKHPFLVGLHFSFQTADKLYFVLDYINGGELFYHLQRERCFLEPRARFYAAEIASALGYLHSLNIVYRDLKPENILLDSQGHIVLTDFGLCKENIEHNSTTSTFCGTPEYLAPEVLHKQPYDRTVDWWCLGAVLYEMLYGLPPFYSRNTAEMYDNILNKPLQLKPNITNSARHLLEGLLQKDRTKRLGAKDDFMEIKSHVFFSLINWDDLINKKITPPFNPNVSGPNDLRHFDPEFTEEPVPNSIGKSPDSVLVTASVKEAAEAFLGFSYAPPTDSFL

[11] = molecular target: Protein kinase C eta type (Homo sapiens, UniProt P24723); test: Inhibition of PKCeta
[12] = Inhibition of P70S6K
[13] = Inhibition of FGFR

T1 sequence (P08069 31-736 limits assumed): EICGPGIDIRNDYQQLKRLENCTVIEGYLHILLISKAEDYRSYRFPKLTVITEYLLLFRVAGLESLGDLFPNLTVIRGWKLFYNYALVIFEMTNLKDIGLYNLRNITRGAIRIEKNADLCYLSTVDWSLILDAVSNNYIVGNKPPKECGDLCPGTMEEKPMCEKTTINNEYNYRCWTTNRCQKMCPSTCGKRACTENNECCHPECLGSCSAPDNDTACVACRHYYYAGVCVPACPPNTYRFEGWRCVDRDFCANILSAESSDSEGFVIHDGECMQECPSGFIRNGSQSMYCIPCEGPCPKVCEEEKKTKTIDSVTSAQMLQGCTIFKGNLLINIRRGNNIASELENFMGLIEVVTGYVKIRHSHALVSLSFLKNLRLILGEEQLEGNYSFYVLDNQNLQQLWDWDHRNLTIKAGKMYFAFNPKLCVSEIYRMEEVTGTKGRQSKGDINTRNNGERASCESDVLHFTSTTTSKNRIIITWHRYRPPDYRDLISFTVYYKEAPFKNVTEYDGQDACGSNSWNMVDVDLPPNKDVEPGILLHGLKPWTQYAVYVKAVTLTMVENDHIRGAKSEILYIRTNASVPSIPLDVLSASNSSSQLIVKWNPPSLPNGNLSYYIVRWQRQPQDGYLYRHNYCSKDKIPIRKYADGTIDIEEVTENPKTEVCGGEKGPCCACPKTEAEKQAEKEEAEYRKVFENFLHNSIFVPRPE
T1 sequence (P08069 741-1367 limits assumed): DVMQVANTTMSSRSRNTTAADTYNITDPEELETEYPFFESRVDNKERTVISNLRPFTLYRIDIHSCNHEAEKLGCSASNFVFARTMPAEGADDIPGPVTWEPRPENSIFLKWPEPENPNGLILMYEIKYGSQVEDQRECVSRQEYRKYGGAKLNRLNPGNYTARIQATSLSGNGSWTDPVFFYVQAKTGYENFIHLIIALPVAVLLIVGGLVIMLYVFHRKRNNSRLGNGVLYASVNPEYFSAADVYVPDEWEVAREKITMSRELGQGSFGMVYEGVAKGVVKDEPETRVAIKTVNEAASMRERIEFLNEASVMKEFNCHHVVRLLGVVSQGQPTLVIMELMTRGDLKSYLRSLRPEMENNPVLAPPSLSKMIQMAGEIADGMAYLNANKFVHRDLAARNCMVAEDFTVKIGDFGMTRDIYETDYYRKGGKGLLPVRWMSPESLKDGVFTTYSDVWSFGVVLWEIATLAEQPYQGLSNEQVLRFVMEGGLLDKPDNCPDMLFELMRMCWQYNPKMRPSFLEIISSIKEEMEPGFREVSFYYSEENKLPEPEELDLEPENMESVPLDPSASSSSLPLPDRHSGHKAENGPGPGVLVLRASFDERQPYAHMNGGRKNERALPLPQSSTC

SMILES | IC50 [1] [nM] | IC50 [2] [nM] | IC50 [3] [nM] | further results
CN1CCc2cc(Nc3nccc(-c4c(-c5cccc(NC(=O)Cc6ccccc6)c5)nc5sccn45)n3)ccc2C1 | 81 | 160 | 57 | 
O=C(Nc1cccc(-c2nc3sccn3c2-c2ccnc(Nc3ccccc3)n2)c1)c1ccccc1Cl | > 12500 | 35 | 83 | 
O=C(Nc1cccc(-c2nc3sccn3c2-c2ccnc(Nc3ccc(N4CCOCC4)cc3)n2)c1)c1c(F)cccc1F | 1300 | 86 | 1.9 | 
O=C(Nc1cccc(-c2nc3sccn3c2-c2ccnc(Nc3ccc(N4CCOCC4)cc3)n2)c1)c1ccccc1 | 1500 | 4.8 | 7.9 | 
CCN1CCN(c2ccc(Nc3nccc(-c4c(-c5cccc(NC(=O)c6c(F)cccc6F)c5)nc5sccn45)n3)cc2)CC1 | 230 | 14 | 0.96 | IC50 [4]: 50 nM; IC50 [5]: 69 nM; IC50 [6]: 200 nM
CCN1CCN(c2ccc(Nc3nccc(-c4c(-c5cccc(NC(=O)Cc6ccccc6)c5)nc5sccn45)n3)cc2)CC1 | 52 | 170 |  | IC50 [5]: 310 nM; IC50 [6]: 41 nM
O=C(Nc1ccccc1)Nc1cccc(-c2nc3sccn3c2-c2ccnc(Nc3ccc(N4CCOCC4)cc3)n2)c1 | 590 | 170 | 100 | 
O=C(Cc1ccccc1)Nc1cccc(-c2nc3sccn3c2-c2ccnc(Nc3cccc(N4CCOCC4)c3)n2)c1 |  |  |  | IC50 [7]: > 1000 nM; IC50 [8]: > 1000 nM; IC50 [9]: > 1000 nM; IC50 [10]: > 1000 nM; IC50 [11]: > 1000 nM; IC50 [12]: > 1000 nM; IC50 [13]: 890 nM
O=C(Nc1cccc(-c2nc3sccn3c2-c2ccnc(Nc3cccc(N4CCOCC4)c3)n2)c1)c1c(F)cccc1F | 3800 | 86 | 6.2 | 
O=C(CC1CCCCC1)Nc1cccc(-c2nc3sccn3c2-c2ccnc(Nc3ccc(N4CCOCC4)cc3)n2)c1 | 1100 | 1400 | 870 | 
O=C(CC1CCCC1)Nc1cccc(-c2nc3sccn3c2-c2ccnc(Nc3ccc(N4CCOCC4)cc3)n2)c1 | 580 | 1300 | 660 | 
O=C(Nc1cccc(-c2nc3sccn3c2-c2ccncc2)c1)c1ccccc1Cl | > 12500 | 240 | 240 | 
CN(C)CCc1cccc(Nc2nccc(-c3c(-c4cccc(NC(=O)Cc5ccccc5)c4)nc4sccn34)n2)c1 |  | 150 | 24 | 
O=C(Nc1cccc(-c2nc3sccn3c2-c2ccnc(Nc3ccc(N4CCOCC4)cc3)n2)c1)Oc1ccccc1 | 450 | 170 | 190 | 
O=C(Nc1cccc(-c2nc3sccn3c2-c2ccnc(Nc3ccc4c(c3)CCNC4)n2)c1)c1c(F)cccc1F | 100 | 7.2 | 2.3 | 
O=[N+]([O-])c1cccc(-c2nc3sccn3c2-c2ccnc(Nc3ccccc3)n2)c1 | > 12500 | 6000 |  | 
CN(C)CCc1ccc(Nc2nccc(-c3c(-c4cccc(NC(=O)c5c(F)cccc5F)c4)nc4sccn34)n2)cc1 | 210 | 4.3 | 0.78 | IC50 [4]: 220 nM; IC50 [5]: 27 nM; IC50 [6]: 330 nM
Nc1nc2ccc(-c3c(-c4cccc(NC(=O)c5ccccc5Cl)c4)nc4sccn34)cc2[nH]1 | > 12500 | > 12500 | > 12500 | 
O=C(Nc1cccc(-c2nc3sccn3c2-c2ccnc(Nc3ccccc3)n2)c1)c1ccccc1 | > 12500 | 6.3 | 55 | 
O=C(Cc1ccccc1)Nc1cccc(-c2nc3sccn3c2-c2ccnc(Nc3ccc4c(c3)CCNC4)n2)c1 | 27 | 55 | 6.4 | IC50 [4]: 1000 nM; IC50 [5]: 120 nM; IC50 [6]: 180 nM
